Source: PMC10907560, “Significant reduction of activity retention in the kidneys via optimized linker sequences in radiohybrid-based minigastrin analogs” (EJNMMI Research, 2024)
Read-outs that look alike come from different tables or passages of the source.

Assays:
[1] = Biodistribution at 24 h p.i. in AR42J tumor-bearing CB17-SCID mice; assay type: in vivo; details: mouse, 100 pmol, 100 pmol; for tissue to tissue ratio at 24 h: both sexes, CB17-SCID, total radioactivity
Method: (§1) Animal experiments were carried out according to the general animal welfare regulations in Germany (German animal protection act, in the edition of the announcement, dated 18 May 2006, as amended by Article 280 of 19 June 2020, approval no. ROB-55.2–1-2532.Vet_02-18–109 by the General Administration of Upper Bavaria) and the institutional guidelines for the care and use of animals. Therefore, CB17-SCID mice of both genders and aged 2–4 months (Charles River Laboratories International Inc., Sulzfeld, Germany) were used. After arrival at the in-house facilities, mice were allowed to acclimate for a minimum of one week before inoculation of AR42J cells. AR42J cells (6.0 × 10^6 cells per 200 μL) were suspended in a mixture (v/v = 1/1) of nutrient medium and Cultrex® Basement Membrane Matrix Type 3 (Trevigen Inc., Gaithersburg, MD, USA) and inoculated subcutaneously onto the right shoulder of CB17-SCID mice according to a previously reported protocol. Animals were excluded from the study when reaching one of the following endpoints: a weight loss higher than 20%, a tumor size above 1500 mm^3, an ulceration of the tumor, respiratory distress or change of behavior [8]. None of these criteria applied to any animal from the experiment. Neither randomization nor blinding was applied in the allocation of the experiments. Health status of the animals is specific pathogen free according to Federation of European Laboratory Animal Science Associations recommendation.
(§2) Biodistribution studies (n = 4) and µSPECT/CT imaging (n = 1) at 24 h p.i. were carried out as previously published. For all in vivo experiments, approximately 2–3 MBq (100 pmol) of the respective ^177Lu-labeled peptide were administered.
(§3) Table S2. Biodistribution data of [^177Lu]Lu-DOTA-rhCCK-70 and [^177Lu]Lu-DOTA-rhCCK-91 in selected organs at 24 h p.i. in AR42J tumor-bearing CB17-SCID mice (100 pmol each). Data are expressed as %ID/g, mean ± SD.
(§4) Table S3. Tumor-to-background ratios of [^177Lu]Lu-DOTA-rhCCK-70 and [^177Lu]Lu-DOTA-rhCCK-91 in selected organs at 24 h p.i. in AR42J tumor-bearing CB17-SCID mice (100 pmol each). Data are expressed as %ID/g, mean ± SD.

[2] = tested on: AR42J tumor-bearing CB17-SCID mice; experiment: as above; assay type: in vivo; details: for reduction of kidney accumulation and retention compared to [177Lu]Lu-DOTA-rhCCK-18: p < 0.0001
Method: as §1, §2, §3, §4

[3] = molecular target: T1, Human serum albumin (HSA) (Homo sapiens, UniProt P02768); experiment: Human serum albumin binding via high performance affinity chromatography (HPAC); assay type: in vitro ADME; details: Chiralpak HSA column, n = 1
T1 construct: purchased Daicel, Tokyo, Japan H13H-2433
T1 sequence (P02768 25-609): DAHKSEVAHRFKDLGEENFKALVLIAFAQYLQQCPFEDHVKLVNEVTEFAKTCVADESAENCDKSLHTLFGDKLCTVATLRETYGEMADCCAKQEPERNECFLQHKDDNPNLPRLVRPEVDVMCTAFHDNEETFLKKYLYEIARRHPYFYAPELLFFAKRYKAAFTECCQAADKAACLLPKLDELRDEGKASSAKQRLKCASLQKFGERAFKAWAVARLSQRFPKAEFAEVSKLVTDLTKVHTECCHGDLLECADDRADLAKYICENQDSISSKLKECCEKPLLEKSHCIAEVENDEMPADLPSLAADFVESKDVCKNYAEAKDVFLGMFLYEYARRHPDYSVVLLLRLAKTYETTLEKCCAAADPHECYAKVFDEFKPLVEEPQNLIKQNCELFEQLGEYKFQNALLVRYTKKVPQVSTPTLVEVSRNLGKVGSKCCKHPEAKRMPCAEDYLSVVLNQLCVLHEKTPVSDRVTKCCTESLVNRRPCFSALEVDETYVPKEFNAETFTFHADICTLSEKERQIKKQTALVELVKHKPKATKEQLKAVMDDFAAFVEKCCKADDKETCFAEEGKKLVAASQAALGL
Method: Human serum albumin (HSA) binding was determined via high performance affinity chromatography (HPAC), according to previously published protocols. Human serum albumin interaction was calculated according to the retention time (n = 1) of our compounds on a Chiralpak HSA column in dependence of nine reference compounds with known HSA interaction.
Human serum albumin binding was determined via high performance affinity chromatography. Therefore, a Chiralpak HSA column (50 × 3 mm, 5 µm, H13H-2433, Daicel, Tokyo, Japan) was used at a constant flow rate of 0.5 ml/min at room temperature. Mobile phase A consisted of a freshly prepared aqueous solution of NH4OAc (pH = 6.9, 50 mM) and mobile phase B of isopropanol. Calibration of the column was performed daily prior to experiments, by determining the retention times of nine reference substances displaying a HSA binding from 13 to 99%. HPLC gradient for all compounds tested was 100% A (0 to 3 min), followed by 80% A (3 to 40 min). All substances tested, were dissolved in a mixture of A/B (0.5 mg/mL, 1:1, v/v). OriginPro 2016G software (Northampton, United States) was used for non-linear regression and data evaluation.

[4] = Lipophilicity, n-octanol/PBS distribution coefficient logD7.4; assay type: physicochemical; details: 177Lu-labeled peptide; n-octanol/PBS (1/1), n ≥ 5
Method: For determination of lipophilicity, the respective ^177Lu-Labeled peptide precursor (~ 1 MBq, 10 µL in 0.04 M HCl) was added to a solution of n-octanol/PBS (1/1, v/v, 1 mL) and vigourously mixed for 3 min at room temperature (n ≥ 5). Afterwards both phases were seperated using a Biofuge 15 centrifuge (Heraus Sepatech GmbH, Osterode, Germany) at 9,000 rpm for 5 min. 200 µL aliquots of both layers were collected separately, measured in a γ-counter (Perkin Elmer, Waltham, MA, USA) and the logD7.4 value was obtained.

[5] = tumor/adrenal, n=4, Table S3, read-out: Tumor-to-background ratio, Adrenal
[6] = tumor/blood, n=4, Table S3, read-out: Tumor-to-background ratio, Blood
[7] = tumor/bone, n=4, Table S3, read-out: Tumor-to-background ratio, Bone
[8] = tumor/heart, n=4, Table S3, read-out: Tumor-to-background ratio, Heart
[9] = tumor/intestine, n=4, Table S3, read-out: Tumor-to-background ratio, Intestine
[10] = tumor/kidney, n=4, Table S3, read-out: Tumor-to-background ratio, Kidney
[11] = tumor/liver, n=4, Table S3, read-out: Tumor-to-background ratio, Liver
[12] = tumor/lung, n=4, Table S3, read-out: Tumor-to-background ratio, Lung
[13] = tumor/muscle, n=4, Table S3, read-out: Tumor-to-background ratio, Muscle
[14] = tumor/pancreas, n=4, Table S3, read-out: Tumor-to-background ratio, Pancreas
[15] = tumor/spleen, n=4, Table S3, read-out: Tumor-to-background ratio, Spleen
[16] = tumor/stomach, n=4, Table S3, read-out: Tumor-to-background ratio, Stomach
[17] = adrenal, n=4, mean ± SD, read-out: Biodistribution, Adrenal
[18] = blood, n=4, mean ± SD, read-out: Biodistribution, Blood
[19] = bone, n=4, mean ± SD, read-out: Biodistribution, Bone
[20] = heart, n=4, mean ± SD, read-out: Biodistribution, Heart
[21] = intestine, n=4, mean ± SD, read-out: Biodistribution, Intestine
[22] = kidney, n=4, mean ± SD, read-out: Biodistribution, Kidney
[23] = liver, n=4, mean ± SD, read-out: Biodistribution, Liver
[24] = lung, n=4, mean ± SD, read-out: Biodistribution, Lung
[25] = muscle, n=4, mean ± SD, read-out: Biodistribution, Muscle
[26] = pancreas, n=4, mean ± SD, read-out: Biodistribution, Pancreas
[27] = spleen, n=4, mean ± SD, read-out: Biodistribution, Spleen
[28] = stomach, n=4, mean ± SD, read-out: Biodistribution, Stomach
[29] = tumor (AR42J xenograft), n=4, mean ± SD, read-out: Biodistribution, Tumor (AR42J xenograft)

SMILES	tissue to tissue ratio at 24 h [1, 5]	tissue to tissue ratio at 24 h [1, 6]	tissue to tissue ratio at 24 h [1, 7]	tissue to tissue ratio at 24 h [1, 8]	tissue to tissue ratio at 24 h [1, 9]	tissue to tissue ratio at 24 h [1, 10]	tissue to tissue ratio at 24 h [1, 11]	tissue to tissue ratio at 24 h [1, 12]	tissue to tissue ratio at 24 h [1, 13]	tissue to tissue ratio at 24 h [1, 14]	tissue to tissue ratio at 24 h [1, 15]	tissue to tissue ratio at 24 h [1, 16]	tissue uptake at 24 h [1, 17] [%ID/g]	tissue uptake at 24 h [1, 18] [%ID/g]	tissue uptake at 24 h [1, 19] [%ID/g]	tissue uptake at 24 h [1, 20] [%ID/g]	tissue uptake at 24 h [1, 21] [%ID/g]	tissue uptake at 24 h [1, 22] [%ID/g]	tissue uptake at 24 h [1, 23] [%ID/g]	tissue uptake at 24 h [1, 24] [%ID/g]	further results
CCCC[C@@H](C(=O)N[C@@H](CC(=O)O)C(=O)N[C@@H](Cc1cccc2ccccc12)C(N)=O)N(C)C(=O)[C@H](Cc1c[nH]c2ccccc12)NC(=O)CCOCCOCCOCCOCCNC(=O)CC[C@@H](NC(=O)CCOCCOCCOCCOCCOCCOCCOCCOCCNC(=O)CC[C@@H](NC(=O)[C@@H](CNC(=O)c1ccc([Si](F)(C(C)(C)C)C(C)(C)C)cc1)NC(=O)CN1CCN(CC(=O)O)CCN(CC(=O)O)CCN(CC(=O)O)CC1)C(=O)O)C(=O)O [[^nat/177Lu]Lu-DOTA-rhCCK-70, DOTA-D-Dap(p-SiFA)-D-γ-Glu-(PEG)7-D-γ-Glu-(PEG)3-Trp-(N-Me)Nle-Asp-1-Nal-NH2, metal not drawn]	20.5 ± 8.5	143 ± 49	9.48 ± 8.05	55.4 ± 13.4	27.4 ± 7.7	1.44 ± 0.12	4.26 ± 1.7	33.4 ± 8.53	276 ± 189	55.2 ± 19.6	6.95 ± 2.17	1.97 ± 0.24	0.55 ± 0.46	0.1 ± 0.04	2.4 ± 1.5	0.23 ± 0.05	0.48 ± 0.13	8.4 ± 0.8	3.5 ± 1.7	0.39 ± 0.12	tissue to tissue ratio at 24 h ([1]; tumor/kidney, read-out: tumor-to-kidney ratio): 1.4 ± 0.1; tissue to tissue ratio at 24 h ([1]; tumor/stomach, read-out: tumor-to-stomach ratio): 2 ± 0.2; tissue uptake at 24 h ([1]; bone, depending on 177Lu-batch, read-out: activity levels in the bone, range observed (correlating with free lutetium-177)): 0.5 to 4.3 %ID/g; tissue uptake at 24 h [1, 25]: 0.06 ± 0.03 %ID/g; tissue uptake at 24 h [1, 26]: 0.24 ± 0.08 %ID/g; tissue uptake at 24 h [1, 27]: 1.9 ± 0.6 %ID/g; tissue uptake at 24 h [1, 28]: 6.2 ± 0.9 %ID/g; tissue uptake at 24 h [1, 29]: 12 ± 0.8 %ID/g; decrease of activity levels in the tumor compared to [177Lu]Lu-DOTA-rhCCK-18 [2]: 2 fold; tumor-to-kidney ratio [2]: 1.45 ± 0.12; Biodistribution, Kidney ([2]; 100 pmol, n=4, mean ± SD): 8.37 ± 0.78 %ID/g; Biodistribution, Liver ([2]; 100 pmol, n=4, mean ± SD): 3.48 ± 1.66 %ID/g; Biodistribution, Spleen ([2]; 100 pmol, n=4, mean ± SD): 1.92 ± 0.60 %ID/g; Biodistribution, Stomach ([2]; 100 pmol, n=4, mean ± SD): 6.21 ± 0.85 %ID/g; reduction of kidney accumulation and retention compared to [177Lu]Lu-DOTA-rhCCK-18 [2]: 16 fold; HSA binding [3]: 89.3%; logD [4]: -1.67
CCCC[C@@H](C(=O)N[C@@H](CC(=O)O)C(=O)N[C@@H](Cc1cccc2ccccc12)C(N)=O)N(C)C(=O)[C@H](Cc1c[nH]c2ccccc12)NC(=O)CCOCCOCCOCCOCCNC(=O)CC[C@@H](NC(=O)CCOCCOCCOCCOCCOCCNC(=O)CC[C@@H](NC(=O)[C@@H](CNC(=O)C[N+](C)(C)Cc1ccc([Si](F)(C(C)(C)C)C(C)(C)C)cc1)NC(=O)CN1CCN(CC(=O)O)CCN(CC(=O)O)CCN(CC(=O)O)CC1)C(=O)O)C(=O)O [[^nat/177Lu]Lu-DOTA-rhCCK-91, DOTA-D-Dap(SiFAlin)-D-γ-Glu-(PEG)4-D-γ-Glu-(PEG)3-Trp-(N-Me)Nle-Asp-1-Nal-NH2, metal not drawn]	17.3 ± 1.9	185 ± 32	11.8 ± 0.72	25.3 ± 5.2	12.3 ± 5.1	1.14 ± 0.12	3.8 ± 0.37	29.3 ± 4.2	147 ± 65	8.98 ± 2.1	7.35 ± 0.75	1.95 ± 0.27	0.44 ± 0.09	0.04 ± 0.01	0.64 ± 0.12	0.31 ± 0.07	0.68 ± 0.16	6.6 ± 0.5	2 ± 0.1	0.26 ± 0.05	tissue uptake at 24 h [1, 25]: 0.06 ± 0.01 %ID/g; tissue uptake at 24 h [1, 26]: 0.9 ± 0.32 %ID/g; tissue uptake at 24 h [1, 27]: 1 ± 0.3 %ID/g; tissue uptake at 24 h [1, 28]: 4 ± 1.2 %ID/g; tissue uptake at 24 h [1, 29]: 7.5 ± 1 %ID/g; decrease of activity levels in the tumor compared to [177Lu]Lu-DOTA-rhCCK-18 [2]: three; Biodistribution, Kidney ([2]; 100 pmol, n=4, mean ± SD): 6.58 ± 0.53 %ID/g; Biodistribution, Liver ([2]; 100 pmol, n=4, mean ± SD): 1.96 ± 0.08 %ID/g; Biodistribution, Spleen ([2]; 100 pmol, n=4, mean ± SD): 1.04 ± 0.26 %ID/g; Biodistribution, Stomach ([2]; 100 pmol, n=4, mean ± SD): 3.99 ± 1.16 %ID/g; Biodistribution, Tumor (AR42J xenograft) ([2]; 100 pmol, n=4, mean ± SD): 7.47 ± 1.01 %ID/g; reduction of kidney accumulation and retention compared to [177Lu]Lu-DOTA-rhCCK-18 [2]: 20 fold; HSA binding [3]: 90.0%; logD [4]: -1.66 ± 0.08
